Data from patent publication US20250186541A1, “DLL3 TARGETING PEPTIDES AND CONSTRUCTS THEREOF” (MARIANA ONCOLOGY INC., priority 2023, published 2025).
One block for each molecule: values may come before it. Bridge positions count the residues as written; N and C are the ends. Square brackets hold non-standard residues; d marks the D form. Peptide text beside a SMILES is read from it. * marks the point of attachment. DOTA = O=C(O)CN1CCN(CC(=O)O)CCN(CC(=O)*)CCN(CC(=O)O)CC1; Phe(4-CH2NH2) = NCc1ccc(C[C@H](N)C(=O)O)cc1; 1Nal = N[C@@H](Cc1cccc2ccccc12)C(=O)O; 2Nal = N[C@@H](Cc1ccc2ccccc2c1)C(=O)O; tBuAla = CC(C)(C)C[C@H](N)C(=O)O; 4Pal = N[C@@H](Cc1ccncc1)C(=O)O; NMeQ = CN[C@@H](CCC(N)=O)C(=O)O; AllylGly = C=CC[C@H](N)C(=O)O; Chg = N[C@H](C(=O)O)C1CCCCC1; αMeP = C[C@@]1(C(=O)O)CCCN1; NMeS = CN[C@@H](CO)C(=O)O; Ahx = NCCCCCC(=O)O

Legend:
human DLL3 = target: T1, human DLL3 (Homo sapiens, UniProt Q9NYJ7); test: Affinity determination by Surface Plasmon Resonance (SPR), Biacore, 1:1 binding model; details: biotinylated human DLL3 on streptavidin chip, 25° C.; NB = nonbinding
T1 construct: biotin (biotinylated)
T1 sequence (Q9NYJ7 27-618): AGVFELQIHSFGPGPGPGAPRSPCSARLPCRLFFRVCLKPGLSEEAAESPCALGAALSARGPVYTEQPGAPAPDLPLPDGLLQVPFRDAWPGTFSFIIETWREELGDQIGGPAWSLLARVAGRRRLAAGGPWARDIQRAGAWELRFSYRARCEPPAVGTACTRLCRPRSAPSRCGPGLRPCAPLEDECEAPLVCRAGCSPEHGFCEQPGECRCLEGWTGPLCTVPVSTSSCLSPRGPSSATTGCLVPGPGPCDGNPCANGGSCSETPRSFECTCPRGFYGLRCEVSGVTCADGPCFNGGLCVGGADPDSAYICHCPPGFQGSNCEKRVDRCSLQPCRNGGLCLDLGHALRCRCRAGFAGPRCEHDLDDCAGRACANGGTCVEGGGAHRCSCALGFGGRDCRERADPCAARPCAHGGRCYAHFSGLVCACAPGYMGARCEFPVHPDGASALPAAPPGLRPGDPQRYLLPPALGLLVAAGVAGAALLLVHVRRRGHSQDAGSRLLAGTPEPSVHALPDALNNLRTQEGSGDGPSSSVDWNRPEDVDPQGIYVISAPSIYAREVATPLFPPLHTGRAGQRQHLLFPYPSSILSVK
In short: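 SPR with biotinylated human DLL3 captured on a streptavidin chip, with a reference surface subtracted. Samples were injected at several concentrations at 100 μL/min in phosphate buffer with 137 mM NaCl, 2.7 mM KCl, 0.05% P20 and 2% DMSO. Kinetic and affinity constants came from a 1:1 binding fit.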

SHP-77 cells [1] = test: Cell binding (total uptake) of [177Lu]Lu-labeled peptide, gamma counter bound fraction; assay type: cell-based, human; details: [177Lu]Lu-test peptide, 1 h, 37° C., 1% PBSA
Method: (§1) Example 4. Cell Binding, Internalization, and Radiolabeling of Targeting Moieties Polypeptides General Procedure for Radiolabeling of RPTs with [^177Lu]LuCl3
(§2) [^177Lu]LuCl3 was received from venders in HCl solution. For every mCi of [^177Lu]LUCl3 added to the reaction vial (1.5 mL Eppendorf vial), ammonium acetate buffer (0.2 M, pH 4.9, 100 μL, containing 1% w/v ascorbic acid and 6% v/v ethanol) and peptide conjugate (1 nmol) was added. The pH of the solution was determined to be approximately 5 by using pH strips. The reaction vial was incubated at 80° C., 700 RPM for 17-20 minutes. A sample from the reaction was analyzed by RP-HPLC using an Agilent Infinity II 1260 HPLC to determine reaction completion and radiochemical purity. HPLC conditions: Waters XBridge BEH […] Column, 130 Å, 3.5 um, 4.6 mm×250 mm; mobile phase: Solvent A=water (with 0.1% formic acid), solvent B=acetonitrile (with 0.1% formic acid). Gradients: 25-45% B in 10 minutes, 45-65% B in 12 minutes, 65-90% in 6 minutes at a flow rate of 0.5 mL/min. Required amounts of the product was formulated in 1% PBSA for cell studies.
(§3) The study was conducted using SHP-77cells (Table 7) Adherent cell studies: The cells were cultured in appropriate culture media (20 mL) in tissue culture treated T150 flasks at 37° C. and 5% CO2. Adherent cells were detached (60-70% confluent) using 5 mL Versene at 37° C. for 3 min. After confirming the viability using countess and count of detached cells using Trypan blue, the cells were centrifuged at 4° C. for 5 minutes (1,000 rpm). The cell pellet obtained was washed once with PBS and resuspended in 1% PBSA to obtain the desired cell concentration (5-25 million cells/mL).
as §3, with “Suspension” for “The study was conducted using SHP-77cells (Table 7) Adherent”, “CO2.” for “CO2. Adherent cells were detached (60-70% confluent) using 5 mL Versene at 37° C. for 3 min.”, “viability” for “viability using countess”
(§4) Cell numbers used for the assay were in the range of 5 million cells/condition −25 million cells/condition.
Total uptake: Cells were incubated with 300 μL (0.8 μCi) of the incubation buffer (containing radiolabeled peptide [^177Lu]Lu-test peptide) for 1 hour at 37 C (Table 8). Post incubation, the cells were pelleted and washed 2 times using cold PBS+1% BSA. The supernatant and washes were combined and counted together as “unbound fraction” in a gamma counter. The cells were then resuspended in 300 μL of 1% PBS+1% BSA and counted in the gamma counter as “bound fraction”.
(§5) SHP-77 cells are human-derived, non-engineered SCLC cells.

SHP-77 cells [2] = test: Internalization of [177Lu]Lu-labeled peptide after glycine acid wash, gamma counter internalized fraction; assay type: cell-based, human; details: [177Lu]Lu-test peptide, 1 h, 37° C., acid wash 50 mM Glycine pH 2.5
Method: as §1, §2, §3
as §3, with “Suspension” for “The study was conducted using SHP-77cells (Table 7) Adherent”, “CO2.” for “CO2. Adherent cells were detached (60-70% confluent) using 5 mL Versene at 37° C. for 3 min.”, “viability” for “viability using countess”
as §4
Internalization: The resuspended cells in 300 μl of 1% PBSA and counted in the gamma counter as “bound fraction” were collected in 1.5 ml Eppendorf tube and pelleted. The pelleted cells were incubated with 300 μl of 50 mM Glycine pH=2.5 for 3 minutes and then pelleted discarding the supernatant. This process was repeated one more time. The pelleted cells were washed with 300 μl of cold 1% PBSA and then resuspended in 300 μl 0.3M NaOH. This was counted in the gamma counter as “internalized fraction”.
as §5

Biotinylated human DLL3 = target: T2, Biotinylated human DLL3 (human, UniProt Q9NYJ7 27-492, biotinylated (site not stated)); test: SPR, biotin-hDLL3 on SA chip
T2 construct: also called Delta-like ligand 3; Delta Like Canonical Notch Ligand 3
T2 sequence (looked up): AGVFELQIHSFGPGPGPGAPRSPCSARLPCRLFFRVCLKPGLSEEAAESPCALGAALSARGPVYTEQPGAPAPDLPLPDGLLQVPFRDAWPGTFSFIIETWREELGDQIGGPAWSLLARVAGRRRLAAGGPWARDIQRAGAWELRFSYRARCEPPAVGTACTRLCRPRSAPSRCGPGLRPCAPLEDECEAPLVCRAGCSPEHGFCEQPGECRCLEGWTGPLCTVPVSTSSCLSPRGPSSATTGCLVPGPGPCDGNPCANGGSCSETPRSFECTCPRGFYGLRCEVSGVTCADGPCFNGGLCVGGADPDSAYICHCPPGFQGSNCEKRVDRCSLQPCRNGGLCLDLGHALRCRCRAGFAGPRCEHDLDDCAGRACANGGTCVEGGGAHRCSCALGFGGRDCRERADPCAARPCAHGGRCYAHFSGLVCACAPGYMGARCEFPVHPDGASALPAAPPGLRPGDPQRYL

Kd (human DLL3): 0.049 nM
Molecule: CC(=O)N[C@H](C)C(=O)N[C@@H](CO)C(=O)N[C@@H](CC(=O)O)C(=O)N[C@H]1CSSC[C@@H](C(=O)N2CCC[C@@]2(C)C(=O)N[C@@H](Cc2ccccc2)C(=O)N[C@@H](CC(=O)O)C(=O)N[C@H](CCCCNC(=O)CN2CCN(CC(=O)O)CCN(CC(=O)O)CCN(CC(=O)O)CC2)C(N)=O)NC(=O)[C@H](CC(=O)O)NC(=O)[C@H](Cc2ccc3ccccc3c2)NC(=O)[C@H](C)NC(=O)[C@H](CC(C)(C)C)NC(=O)[C@H](Cc2cccc3ccccc23)NC1=O [compound 166, Ac-(D-Ala)-S-D-C(3)-(1Nal)-(t-Bu-Ala)-Ala-(2Nal)-D-C(3)-(aMe-P)-F-D-[D-Lys(DOTA)]-NH2] (Ac-[dA]SDC[1Nal][tBuAla]A[2Nal]DC[αMeP]FD[dK](DOTA)-NH2; disulfide 4-10)
% Binding (SHP-77 cells [1]): 7% | % Internalization (out of bound fraction) (SHP-77 cells [2]): 58%

Kd (human DLL3): 0.63 nM
Molecule: CC(=O)N[C@H](C)C(=O)N(C)[C@@H](CO)C(=O)N[C@@H](CC(=O)O)C(=O)N[C@H]1C/C=C/C[C@@H](C(=O)N2CCC[C@@]2(C)C(=O)N[C@@H](Cc2ccccc2)C(=O)N[C@@H](CC(=O)O)C(N)=O)NC(=O)[C@H](CC(N)=O)NC(=O)[C@H](Cc2ccc3ccccc3c2)NC(=O)[C@H](Cc2ccc(CNC(=O)CN3CCN(CC(=O)O)CCN(CC(=O)O)CCN(CC(=O)O)CC3)cc2)NC(=O)[C@H](CC(C)(C)C)NC(=O)[C@H](Cc2cccc3ccccc23)NC1=O [compound 195, Ac-(D-Ala)-(NMe-Ser)-D-AllyG(4)-(1Nal)-(t-Bu-Ala)-[PAF(DOTA)]-(2Nal)-N-AllyG(4)-(aMe-P)-F-D-CONH2] (Ac-[dA][NMeS]D[AllylGly][1Nal][tBuAla][Phe(4-CH2NH2)](DOTA)[2Nal]N[AllylGly][αMeP]FD-NH2; staple (E) 4-10)
% Binding (SHP-77 cells [1]): 7% | % Internalization (out of bound fraction) (SHP-77 cells [2]): 43%

binding result (Biotinylated human DLL3): no binding
Molecule: Ac-SDCWLQWNCPFD-NH2 (disulfide 3-9) [Cpd #5]

Kd (Biotinylated human DLL3): 0.89 nM
B2: Cpd #113 (peptide)
peptide: Ac-[Chg]SDC[1Nal]L[4Pal]WNCPFD[dK](DOTA)-NH2
modifications: disulfide 4-10
SMILES: CC(=O)N[C@H](C(=O)N[C@@H](CO)C(=O)N[C@@H](CC(=O)O)C(=O)N[C@H]1CSSC[C@@H](C(=O)N2CCC[C@H]2C(=O)N[C@@H](Cc2ccccc2)C(=O)N[C@@H](CC(=O)O)C(=O)N[C@H](CCCCNC(=O)CN2CCN(CC(=O)O)CCN(CC(=O)O)CCN(CC(=O)O)CC2)C(N)=O)NC(=O)[C@H](CC(N)=O)NC(=O)[C@H](Cc2c[nH]c3ccccc23)NC(=O)[C@H](Cc2ccncc2)NC(=O)[C@H](CC(C)C)NC(=O)[C@H](Cc2cccc3ccccc23)NC1=O)C1CCCCC1

Second part, the molecule before the results:

Molecule: CC(=O)N[C@H](C(=O)N[C@@H](CO)C(=O)N[C@@H](CC(=O)O)C(=O)N[C@H]1CSSC[C@@H](C(=O)N2CCC[C@@]2(C)C(=O)N[C@@H](Cc2ccccc2)C(=O)N[C@@H](CC(=O)O)C(=O)N[C@H](CCCCNC(=O)CN2CCN(CC(=O)O)CCN(CC(=O)O)CCN(CC(=O)O)CC2)C(N)=O)NC(=O)[C@H](CC(N)=O)NC(=O)[C@H](Cc2ccc3ccccc3c2)NC(=O)[C@H](CCC(N)=O)NC(=O)[C@H](C2CCCCC2)NC(=O)[C@H](Cc2cccc3ccccc23)NC1=O)C1CCCCC1 [compound 125, Ac-(Chg)-S-D-C(3)-(1Nal)-(Chg)-Q-(2Nal)-N-C(3)-(aMe-P)-F-D-D-Lys(DOTA)-CONH2] (Ac-[Chg]SDC[1Nal][Chg]Q[2Nal]NC[αMeP]FD[dK](DOTA)-NH2; disulfide 4-10)
Kd (human DLL3): 0.16 nM | % Binding (SHP-77 cells [1]): 17% | % Internalization (out of bound fraction) (SHP-77 cells [2]): 51%

B1: Cpd #97 (peptide)
peptide: Ac-[Chg]SDCK(DOTA)LQWNCPFD-NH2
modifications: disulfide 4-10
SMILES: CC(=O)N[C@H](C(=O)N[C@@H](CO)C(=O)N[C@@H](CC(=O)O)C(=O)N[C@H]1CSSC[C@@H](C(=O)N2CCC[C@H]2C(=O)N[C@@H](Cc2ccccc2)C(=O)N[C@@H](CC(=O)O)C(N)=O)NC(=O)[C@H](CC(N)=O)NC(=O)[C@H](Cc2c[nH]c3ccccc23)NC(=O)[C@H](CCC(N)=O)NC(=O)[C@H](CC(C)C)NC(=O)[C@H](CCCCNC(=O)CN2CCN(CC(=O)O)CCN(CC(=O)O)CCN(CC(=O)O)CC2)NC1=O)C1CCCCC1
binding result (Biotinylated human DLL3): no binding

Molecule: {DOTA-Ahx}-SDCWL[NMeQ]WNCPFD-NH2 (disulfide 3-9) [Cpd #93]
binding result (Biotinylated human DLL3): no binding

B3: Cpd #99 (peptide)
peptide: Ac-[Chg]SDCWLQK(DOTA)NCPFD-NH2
modifications: disulfide 4-10
SMILES: CC(=O)N[C@H](C(=O)N[C@@H](CO)C(=O)N[C@@H](CC(=O)O)C(=O)N[C@H]1CSSC[C@@H](C(=O)N2CCC[C@H]2C(=O)N[C@@H](Cc2ccccc2)C(=O)N[C@@H](CC(=O)O)C(N)=O)NC(=O)[C@H](CC(N)=O)NC(=O)[C@H](CCCCNC(=O)CN2CCN(CC(=O)O)CCN(CC(=O)O)CCN(CC(=O)O)CC2)NC(=O)[C@H](CCC(N)=O)NC(=O)[C@H](CC(C)C)NC(=O)[C@H](Cc2c[nH]c3ccccc23)NC1=O)C1CCCCC1
binding result (Biotinylated human DLL3): no binding
